The target of assay [1] is T1, Progesterone receptor (Homo sapiens, UniProt P06401).
T1 sequence (P06401 whole entry): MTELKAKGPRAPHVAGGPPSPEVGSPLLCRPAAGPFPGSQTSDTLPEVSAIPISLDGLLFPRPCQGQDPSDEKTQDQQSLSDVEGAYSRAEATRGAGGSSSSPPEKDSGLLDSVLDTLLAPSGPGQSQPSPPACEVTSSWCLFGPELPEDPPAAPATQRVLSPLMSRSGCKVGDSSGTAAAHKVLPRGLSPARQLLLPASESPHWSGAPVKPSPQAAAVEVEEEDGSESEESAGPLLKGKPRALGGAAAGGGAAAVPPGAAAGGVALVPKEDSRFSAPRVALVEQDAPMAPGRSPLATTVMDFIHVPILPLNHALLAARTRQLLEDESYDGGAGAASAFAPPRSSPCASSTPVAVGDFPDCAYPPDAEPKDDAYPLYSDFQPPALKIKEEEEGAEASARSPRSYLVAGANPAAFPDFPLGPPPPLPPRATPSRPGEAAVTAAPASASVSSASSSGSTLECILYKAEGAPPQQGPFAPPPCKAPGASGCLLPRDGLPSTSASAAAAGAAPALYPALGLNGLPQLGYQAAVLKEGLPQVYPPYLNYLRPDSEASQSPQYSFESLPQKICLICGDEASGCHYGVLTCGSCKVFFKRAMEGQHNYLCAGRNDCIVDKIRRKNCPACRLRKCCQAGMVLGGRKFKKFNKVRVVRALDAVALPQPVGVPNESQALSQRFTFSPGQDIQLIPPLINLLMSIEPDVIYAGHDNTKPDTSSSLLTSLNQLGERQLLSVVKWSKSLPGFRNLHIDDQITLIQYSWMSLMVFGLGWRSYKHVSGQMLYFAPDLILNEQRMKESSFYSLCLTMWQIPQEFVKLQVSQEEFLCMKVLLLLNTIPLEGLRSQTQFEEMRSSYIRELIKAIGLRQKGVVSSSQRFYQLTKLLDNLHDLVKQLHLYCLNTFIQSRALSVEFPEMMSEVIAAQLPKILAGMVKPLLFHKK
As to the kind of experiment: Agonistic activity against human progesterone receptor B (hPR-B) in co-transfected CV-1 cells. The format is functional, cell-based.

The target of assay [2] is T1, Progesterone receptor. The assay can be described thus: Binding affinity against human progesterone receptor-A (hPR-A).
In assay [3] the target is T1, Progesterone receptor. The assay can be described thus: Antagonist activity against human progesterone receptor B (hPR-B) in co-transfected CV-1 cells. The format is functional, cell-based.

For `CC1=CC(C)(C)Nc2cc3c(c(F)c21)-c1ccc(F)cc1C3`, a half-maximal effect in assay [1] (EC50) was put at 0.65 µM. This compound also yielded a Ki in assay [2] of 0.0015 µM.

In assay [3], `CC1=CC(C)(C)Nc2cc3c(cc21)-c1ccc(Br)cc1C3Cc1ccccc1` (configuration not stated) showed an IC50 of 10 µM. Also, the Ki in assay [2] was over 10 µM.

For the compound `CC1=CC(C)(C)Nc2ccc3c(c21)Cc1cc([N+](=O)[O-])c(F)cc1-3`, the IC50 in assay [3] is 3.33 µM. For the same compound, the Ki in assay [2] was found to be 0.097 µM.

Compound `CC1=CC(C)(C)Nc2cc3c(cc21)-c1c(F)cc(F)cc1C3O` (configuration not stated) came in with an IC50 in assay [3] of 0.08 µM. The compound also had a Ki in assay [2] of 0.0255 µM.

The compound `CC1=CC(C)(C)Nc2cc3c(cc21)-c1ccccc1C3O` (configuration not stated) returned an IC50 in assay [3] of 0.609 µM. For the same compound, the affinity in assay [2] corresponds to a Ki of 0.483 µM.

For the compound `CC1=CC(C)(C)Nc2cc3c(cc21)-c1cccc(CO)c1C3`, in assay [3], the IC50 was 10 µM. The same compound yielded a Ki in assay [2] of 0.0124 µM.

As to `CC1=CC(C)(C)Nc2cc3c(cc21)-c1ccc([N+](=O)[O-])cc1C3`, it took 0.09 µM to reach half-maximal inhibition in assay [3] (IC50). Further, in assay [2], the Ki amounted to 0.0036 µM.

In turn, `CC1=CC(C)(C)Nc2cc3[nH]c4ccccc4c3cc21` registered an IC50 in assay [3] of 0.059 µM. Also, the Ki in assay [2] came out at 0.113 µM.

As to `CC1=CC(C)(C)Nc2cc3c(cc21)-c1ccc(Cl)cc1C3`, in assay [3], the IC50 came to 0.248 µM. This compound also yielded a Ki in assay [2] of 0.029 µM.

In assay [3], `CC1=CC(C)(C)Nc2ccc3c([nH]c4ccccc43)c21` came in with a concentration for half-maximal inhibition (IC50) of 0.662 µM. This compound also yielded a Ki in assay [2] of over 1 µM.

`CC1=CC(C)(C)Nc2cc3c(c(F)c21)-c1ccc(F)cc1C3OC(=O)C(F)(F)F` (configuration not stated) displayed an IC50 in assay [3] of 0.046 µM. In addition, the affinity in assay [2] corresponds to a Ki of 0.0625 µM.

In assay [3], `CC1=CC(C)(C)Nc2cc(F)c3c(c21)C(O)c1cc(F)ccc1-3` (configuration not stated) gave an IC50 of 10 µM. The same compound came in with an inhibitory constant (Ki) in assay [2] of 2.58 µM.

Take `CC1=CC(C)(C)Nc2cc3c(cc21)-c1cc(F)cc(F)c1C3O` (configuration not stated): the IC50 in assay [3] was determined as 0.074 µM. In assay [2], this compound came in with a Ki of 0.202 µM.

On to `CCn1c2ccccc2c2ccc3c(c21)C(C)=CC(C)(C)N3`, for which inhibition in assay [3] was half-maximal at 0.284 µM (IC50). Further, the Ki in assay [2] is 0.169 µM.

For the compound `CC1=CC(C)(C)Nc2ccc3c(c21)Cc1ccccc1-3`, the IC50 in assay [3] came out at 0.549 µM. Besides, the affinity in assay [2] corresponds to a Ki of 0.013 µM.

Consider `CC1=CC(C)(C)Nc2cc3c(c(Cl)c21)-c1ccccc1C3O` (configuration not stated), for which the IC50 in assay [3] was found to be 0.163 µM. Also, the affinity in assay [2] corresponds to a Ki of 0.0531 µM.

Consider `CC1=CC(C)(C)Nc2cc3c(cc21)-c1c(F)cccc1C3=O`, for which, in assay [3], the IC50 turned out to be 0.158 µM. For the same compound, the Ki in assay [2] turned out to be 0.0291 µM.

In assay [3], `CC1=CC(C)(C)Nc2cc3c(c(F)c21)-c1ccc(F)cc1C3=O` returned a half-maximal inhibitory concentration (IC50) of 0.365 µM. Also, the Ki in assay [2] was over 10 µM.

As to `CC1=CC(C)(C)Nc2cc3c(cc21)-c1ccccc1C3=O`, in assay [3], inhibition was half-maximal at 0.353 µM (IC50). This compound also displayed a Ki in assay [2] of 3.55 µM.

The compound `CC1=CC(C)(C)Nc2cc3c(cc21)-c1c(F)cccc1C3O` (configuration not stated) showed an IC50 in assay [3] of 0.099 µM. Besides, in assay [2], the Ki worked out at 0.449 µM.

For `CC1=CC(C)(C)Nc2cc3c(cc21)-c1ccc(Br)cc1C3`, the IC50 in assay [3] was found to be 0.434 µM. The compound further displayed a Ki in assay [2] of 0.024 µM.

Regarding `CC1=CC(C)(C)Nc2ccc3c(c21)Cc1cc(Br)ccc1-3`, 2.33 µM corresponded to half-maximal inhibition in assay [3] (IC50). Besides, the Ki in assay [2] was 0.2 µM.

In the case of `CC1=CC(C)(C)Nc2cc3c(c(F)c21)-c1ccc(F)cc1C3(C)O` (configuration not stated), the concentration for half-maximal inhibition (IC50) in assay [3] came out at 10 µM. Moreover, the Ki in assay [2] is over 10 µM.

As to `CC1=CC(C)(C)Nc2cc3oc4ccccc4c3cc21`, in assay [3], the IC50 was 1.85 µM. The same compound had a Ki in assay [2] of 0.184 µM.

Take `CC1=CC(C)(C)Nc2cc3c(cc21)-c1ccc(Br)cc1C3C` (configuration not stated): the concentration for half-maximal inhibition (IC50) in assay [3] turned out to be 10 µM. In assay [2], this compound displayed a Ki of over 10 µM.

Consider `CC1=CC(C)(C)Nc2cc3c(cc21)-c1ccc(F)cc1C3O` (configuration not stated), for which, in assay [3], it took 0.122 µM to reach half-maximal inhibition (IC50). This compound displayed a Ki in assay [2] of 0.101 µM.

`CC1=CC(C)(C)Nc2ccc3c(c21)Cc1cc([N+](=O)[O-])ccc1-3`: half-maximal inhibition in assay [3] (IC50) was put at 1.67 µM. The compound further had a Ki in assay [2] of 0.057 µM.

Regarding `CC1=CC(C)(C)Nc2cc3c(cc21)-c1ccc(Br)cc1C3O` (configuration not stated), it took 3.44 µM to reach half-maximal inhibition in assay [3] (IC50). The compound also gave a Ki in assay [2] of 1.86 µM.

Consider `CC1=CC(C)(C)Nc2ccc3c(c21)Cc1c(F)cccc1-3`, for which the IC50 in assay [3] was 0.496 µM. The affinity in assay [2] corresponds to a Ki of 0.0155 µM.

As for `CC1CC(C)(C)Nc2cc3c(cc21)-c1ccccc1C3` (configuration not stated), the IC50 in assay [3] stood at 0.424 µM. For the same compound, the Ki in assay [2] came to 0.087 µM.

`CC1=CC(C)(C)Nc2cc(F)c3c(c21)Cc1cc(F)ccc1-3`: in assay [3], the IC50 stood at 5.68 µM. Besides, the inhibition constant Ki in assay [2] came out at 0.0209 µM.

With `CC1=CC(C)(C)Nc2cc3c(cc21)-c1ccccc1C3`, the IC50 in assay [3] was found to be 0.22 µM. For the same compound, in assay [2], the affinity corresponds to a Ki of 0.014 µM.

On to `CC1=CC(C)(C)Nc2ccc3c(oc4ccccc43)c21`, for which the IC50 in assay [3] came out at 1.14 µM. Moreover, in assay [2], the Ki came to 0.077 µM.

Take `CC1=CC(C)(C)Nc2cc3c(cc21)-c1c(F)ccc(F)c1C3`: the IC50 in assay [3] worked out at 0.146 µM. In assay [2], this compound yielded a Ki of 0.0031 µM.

Compound `CC1=CC(C)(C)Nc2cc3c(cc21)-c1ccc(F)cc1C3` registered a Ki in assay [2] of 0.0035 µM.

Consider `CC1=CC(C)(C)Nc2cc3c(cc21)-c1cccc(F)c1C3`, for which, in assay [3], the IC50 was determined as 1.77 µM. This compound also had a Ki in assay [2] of 0.0023 µM.

On to `CC(=O)c1ccc2c(c1)Cc1cc3c(cc1-2)C(C)=CC(C)(C)N3`, for which the IC50 in assay [3] is 0.164 µM. Moreover, in assay [2], affinity was put at a Ki of 0.176 µM.

Take `CCCCn1c2ccccc2c2ccc3c(c21)C(C)=CC(C)(C)N3`: in assay [3], the IC50 is 0.416 µM. The Ki in assay [2] came to 0.077 µM.

For `CC1=CC(C)(C)Nc2cc3c(cc21)-c1cc(F)c([N+](=O)[O-])cc1C3`, the half-inhibitory concentration (IC50) in assay [3] was 0.1 µM. The compound further had a Ki in assay [2] of 0.0019 µM.
